Consider 2 compounds from patent US20020193425A1, “Cancer chemopreventative compounds and compositions and methods of treating cancers” (priority 2001, published 2002).

SMILES strings stand for the structures. In brackets after ≈: the same amount, converted by molar mass.

Data set [1] in a line: Cytotoxicity, viability by Trypan blue exclusion. It is filed as cell-based. The settings on record: human, NB4; four days; read-out: Cytotoxicity (IC50, ng/ml). The text has this:
(§1) All cells were routinely tested for mycoplasma contamination.
(§2) Cellular viability was monitored by Trypan blue exclusion.

A further data set relates to DHL-6. Nature of the data set: Cytotoxicity, viability by Trypan blue exclusion. The settings on record: for Cytotoxicity (IC50, ng/ml): DHL-6, four days. It is filed as cell-based.
Text: as §1, §2

Another data set has as its system Daudi. Nature of the data set: Cytotoxicity, viability by Trypan blue exclusion. The note with it: for Cytotoxicity (IC50, ng/ml): Daudi, four days. It is filed as cell-based.
Text: as §1, §2

A further data set deals with NB4. The data set is described as follows: Cytotoxicity, viability by Trypan blue exclusion. It is filed as cell-based.
Text: as §1, §2

Data set [2] has as its system HL-60. The data set is described as follows: Cell cycle effects, DNA content by flow cytometry. It is filed as cell-based, human. The note with it: Brusatol (25 ng/ml), 24 h. The procedure:
About 10^6 cells from each sample were collected and washed twice with ice-cold PBS, fixed in 70% ethanol, and stored at 4° C. until analysis. The cells were stained with PI (50 μg/ml), treated with DNase-free RNase (10 μg/ml), and subjected to DNA content analysis using an EPICS Coulter flow cytometer. At least 10,000 cells were counted for each sample. The percentage of apoptotic cells was calculated by measuring the area under the sub-diploid (DNA <2 N) peak in the plot of cell number against cellular DNA content.
Cells were treated with solvent or brusatol (25 ng/ml) for 24 h, fixed in ethanol and stained with PI for flow cytometric analysis as described under “Materials and methods”. At least 10,000 cells were counted. Results are presented as the mean of triplicate samples (±standard deviation). G1=Gap1, S=Synthesis, G2/M=Gap2+Mitosis, Ap=sub-G1 apoptotic peak.
For orientation: Flow cytometry measures light scatter and fluorescence of single cells or particles in a stream.

Data set [3] deals with HL-60 cells. The data set is described as follows: Membrane phenotype, cell surface antigen by flow cytometry. The note with it: Brusatol 25 ng/ml, 4-day protocol. Type of data set: cell-based, human. On the procedure:
(§3) Cell lines were tested using a 4-day incubation protocol, unless otherwise specified.
(§4) 3) Determination of cell surface antigen by flow cytometry. Cells (10^6) were washed with PBS and then incubated for 30 min at room temperature with respective monoclonal antibodies, washed with 20 volumes of diluent (PBS with 0.1% sodium azide and 1% BSA), and resuspended in 0.5 ml of fresh diluent for evaluation. Necrotic cells were excluded from the analysis by propidium iodide (PI) staining. The following mAbs (Sigma, St. Louis, Mo.) were used to assess the maturation level of myeloid cell lines: antiCD15 (Leu M1), antiCD-11b (OKM1), antiCD14 and antiCD13. The following mAbs (Sigma, St. Louis, Mo.) were used to assess the maturation level of lymphocytic cell lines: antiCD20, antiHLA-DR and antikappa light chain.
Cells were induced to differentiate with the indicated concentrations of brusatol using a 4-day protocol and then analyzed for membrane markers of differentiation as described under “Materials and methods”. Results are expressed as the specific mean fluorescence intensity (ratio of antigen antibody flourescence over isotype antibody fluorescence), and represents the mean of two independent studies.

A further data set has as its system DHL-6 cells. Nature of the data set: Membrane markers of B-lymphocyte maturation by flow cytometry. It is filed as cell-based. The note with it: brusatol (5 ng/ml), control 197.5. On the procedure:
as §3, §4
Finally, various membrane markers of B-lymphocyte maturation (i.e., CD20, superficial light chain kappa and HLA-DR) in SUPB13, RS4;11, Reh, Daudi and DHL-6 were analyzed. Few changes were observed, but brusatol induced a small increase in CD20 with DHL-6 cells (197.5 control vs. 225.3 brusatol (5 ng/ml), specific mean fluorescence intensity), and a larger increase of HLA-DR in Daudi cells (92.5 control vs. 244.9 brusatol (10 ng/ml), specific mean fluorescence intensity).

The nature of data set [4]: Withdrawal assays, growth and differentiation of HL-60 cells. Type of data set: cell-based, human. The note with it: human, HL-60 cells. On the procedure: (§5) The irreversibility of brusatol effects on growth and differentiation of HL-60 cells was tested using withdrawal assays during a 4-day experiment.
(§6) The assay lasted for 4 days (96 h) and then, cells were analyzed for viability and differentiation markers. […] Results are shown as the mean of duplicate samples (±standard deviation).

Data set [5] deals with HL-60 cells. Described as above. It is filed as cell-based, human. The note with it: 12.5 ng/ml. On the procedure: as §5, §6
A short description of data set [6]: Cytotoxicity, viability by Trypan blue exclusion. The settings on record: human, HL-60 cells, Cytotoxicity (IC50, ng/ml), four days.
Experimental: (§7) HL-60, K562, U937, Reh and Daudi cells were obtained from the American Type Culture Collection (Rockville, Md.). Kasumi-1, NB4, BV173, SUPB13, and RS4;11 cells were provided by the Section of Hematology/Oncology, University of Illinois College of Medicine, Chicago, Ill. All cell lines were maintained in suspension culture using RPMI 1640 medium supplemented with 10% heat-inactivated fetal bovine serum, 100 units of penicillin/ml and 100 μg of streptomycin/ml at 37° C. in a humidified atmosphere of 5% CO2 in air. All cells were routinely tested for mycoplasma contamination.
(§8) Cellular viability was monitored by Trypan blue exclusion. Inhibition of [3H]thymidine incorporation into DNA was determined to assess the level of cell proliferation as well as DNA synthesis inhibition. […] The filters were counted using a Microbeta™ liquid scintillation counter (Wallac, Turku, Finland) with scintillation fluid. Finally, the percentage of [3H]thymidine incorporation per 10^6 cells was calculated by dividing the dpm of sample-treated cells by the dpm of DMSO-treated cells.
(§9) ^aViability was determined by Trypan blue exclusion in duplicate samples. […] Results are expressed as median inhibitory cell concentrations of two independent experiments (±standard deviations).
In data set [7] the test system is HL-60. The data set is described as follows: Cytotoxicity, viability by Trypan blue exclusion. The note with it: four days.
Experimental: as §7, §8, §9
A short description of data set [8]: Cytotoxicity, viability by Trypan blue exclusion. The note with it: human, K562 cells.
Experimental: as §7
Cellular viability was monitored by Trypan blue exclusion. Inhibition of [3H]thymidine incorporation into DNA was determined to assess the level of cell proliferation as well as DNA synthesis inhibition. Cells were treated with test samples for four days and then placed into 96-well plates (100 μl) and treated with [3H]thymidine (0.5 μCi/ml, 65 Ci/mmol) for 18 h at 37° C. in a 5% CO2 incubator. Cells then were collected on glass fiber filters using a TOMTEC Harvester 96®. The filters were counted using a Microbeta™ liquid scintillation counter (Wallac, Turku, Finland) with scintillation fluid. Finally, the percentage of [3H]thymidine incorporation per 10^6 cells was calculated by dividing the dpm of sample-treated cells by the dpm of DMSO-treated cells.
as §9
Data set [9] is described as follows: Cytotoxicity, viability by Trypan blue exclusion. The settings on record: human, Kasumi-1 cells, Cytotoxicity (IC50, ng/ml), four days.
Experimental: as §7, §8, §9
For the next data set, the system named is Kasumi-1. Nature of the data set: Cytotoxicity, viability by Trypan blue exclusion. The settings on record: four days.
Data set [10] is described as follows: Cytotoxicity, viability by Trypan blue exclusion. The settings on record: human, Reh cells, Cytotoxicity (IC50, ng/ml), four days.
Experimental: (§10) All cell lines were maintained in suspension culture using RPMI 1640 medium supplemented with 10% heat-inactivated fetal bovine serum, 100 units of penicillin/ml and 100 μg of streptomycin/ml at 37° C. in a humidified atmosphere of 5% CO2 in air.
as §9
In the next data set the test system is Reh. The data set is described as follows: Cytotoxicity, viability by Trypan blue exclusion. The note with it: four days.
The test system of data set [11] is metastatic breast cancer and malignant melanoma. The note with it: phase II trials, adult patients with metastatic breast cancer and malignant melanoma; cited from earlier work.

Experimental for Kasumi-1: as §7, §8, §9
Experimental for Reh: as §10, §9

`COC(=O)[C@@]12OC[C@]34[C@H]([C@@H](O)[C@@H]1O)[C@@]1(C)CC(=O)C(O)=C(C)[C@@H]1C[C@H]3OC(=O)[C@H](OC(=O)C=C(C)C)[C@@H]24` [compound 1, brusatol]: the IC50 at 4 days was under 25 ng/mL in data set [1]; 0.025 µg/mL (≈ 0.048 µM) in data set [4] (4-day protocol, read-out: cytotoxic IC50); 0.05 to 0.1 µg/mL (≈ 0.0961 to 0.192 µM) in [6]; over 0.1 µg/mL in data set [8]; 0.05 to 0.1 µg/mL (≈ 0.0961 to 0.192 µM) in [9]; 0.05 to 0.1 µg/mL (≈ 0.0961 to 0.192 µM) in data set [10]. Moreover, the “Cytotoxicity (IC50, ng/ml)” value with DHL-6 (listed as Brusatol) was 5 ± 0.5 ng/mL; in the data set with DHL-6 (listed as brusatol), “less than 25 ng/ml”; in the data set with Daudi (listed as Brusatol), 5 ± 0.3 ng/mL; in the data set with Daudi (listed as brusatol), “less than 25 ng/ml”; with NB4 (NB4, four days), 15 ± 0.2 ng/mL; in the data set with HL-60 [7] it was 50 ± 0.9 ng/mL. The “Cytotoxicity (IC50, ng/ml)” value in the data set on Kasumi-1 worked out at 75 ± 5.1 ng/mL; in the data set on Reh it was 100 ± 5.4 ng/mL. For the same compound, the cytotoxicity in the data set with DHL-6 (human, 48 h, 25 ng/ml) is recorded as 100%; in the data set on Daudi (human, 48 h, 25 ng/ml), 100%; with NB4 (human, 48 h, 25 ng/ml), 100%. Also, in the data set on HL-60 [2], the G1 entry is on record as “G1 = 68.7 ± 0.9”. Moreover, in the data set with HL-60 [2], the G2/M entry is on record as “G2/M = 18.3 ± 1.1”. For the same compound, the S entry in the data set on HL-60 [2] is listed as “S = 13.0 ± 1.0”. In the data set on HL-60 cells [3], the “CD11b, specific mean fluorescence intensity” value is recorded as 2.2 ± 0.5. Besides, the “CD13, specific mean fluorescence intensity” value with HL-60 cells [3] came out at 266.1 ± 55.7. Also, the “CD14, specific mean fluorescence intensity” value in the data set on HL-60 cells [3] is 1.0. The “CD15, specific mean fluorescence intensity” value with HL-60 cells [3] was determined as 177.1 ± 8.7. For the same compound, the “CD20, specific mean fluorescence intensity” value in the data set on DHL-6 cells was 225.3. In data set [4] (12.5 ng/ml, 48 h exposure), this compound came in with a viability at 48 h, 12.5 ng/ml of over 80%. This compound yielded a viability at 72 h, 12.5 ng/ml in data set [4] (12.5 ng/ml, 72 h exposure) of 56%. This compound gave a viability at 96 h, 12.5 ng/ml in [4] (12.5 ng/ml, 96 h exposure) of 45%. Also, in data set [4] (2-day protocol versus 4-day protocol, read-out: increase in selectivity (differentiation vs cytotoxicity)), the selectivity ratio worked out at 10. Besides, the IC50 at 2 days in [4] (2 day-protocol, read-out: cytotoxic IC50) turned out to be 0.25 µg/mL (≈ 0.48 µM). The “cells induced to differentiate” value in the data set on HL-60 cells [5] (withdrawal after 48 h of exposure, 4-day experiment) came to 41%; in the data set on HL-60 cells [5] (without withdrawal) it was 46%. Further, in data set [8], the viability at 4 days, 100 ng/ml was about 90%.
With `COC(=O)[C@@]12OC[C@]34[C@H]([C@@H](O)[C@@H]1O)[C@@]1(C)CC(=O)C(O)=C(C)[C@@H]1C[C@H]3OC(=O)[C@H](OC(=O)/C=C(\C)C(C)C)[C@@H]24` [compound 2, bruceantin], the objective tumor regressions entry in data set [11] was “No objective tumor regressions were observed”.

One may read the viability as a per cent measure of how many cells are alive, often set against a control. Read a low viability as more harm to the cells.
